Source: patent publication US9624198B2, “Substituted piperidinyltetrahydroquinolines” (Bayer Pharma Aktiengesellschaft, priority 2013, dated 2017)

Assays:
human α2C receptor = human α2C receptor (Homo sapiens (Human), UniProt P18825); experiment: Antagonism against adrenoreceptor α2C (luminescence, recombinant CHO cell line, noradrenaline stimulation); format: cell-based; settings: 20 nM noradrenaline
Description: B-1a) Antagonism Against Adrenoreceptors
Antagonism against the adrenoreceptor α1A was tested using a recombinant human α1A receptor CHO cell line which additionally also recombinantly expresses mtAeq (mitochondrial aequorin). Antagonism against the adrenoreceptor α2A was tested using a recombinant human α2A-Gα16 receptor fusion protein CHO cell line (PerkinElmer Life Sciences) which additionally also recombinantly expresses mtAeq. Antagonism against the adrenoreceptor α2B was tested using a recombinant human α2B receptor CHO cell line (PerkinElmer Life Sciences) which additionally also recombinantly expresses mtAeq. Antagonism against the adrenoreceptor α2C was tested using a recombinant human α2C receptor CHO cell line which additionally also recombinantly expresses a chimaric G protein (Gαqi3) and mtOb (mitochondrial obelin).
The cells were cultivated at 37° C. and 5% CO2 in Dulbecco's modified Eagle's Medium/NUT mix F12 with L-glutamine which additionally contains 10% (v/v) inactivated foetal calf serum, 1 mM sodium pyruvate, 0.9 mM sodium bicarbonate, 50 U/ml penicillin, 50 μg/ml streptomycin, 2.5 μg/ml amphotericin B and 1 mg/ml Geneticin. The cells were passaged with enzyme-free Hank's-based cell dissociation buffer. All cell culture reagents used were from Invitrogen (Carlsbad, USA).
Luminescence measurements were carried out on white 384-well microtitre plates. 2000 cells/well were plated in a volume of 25 μl and cultivated for one day at 30° C. and 5% CO2 in cell culture medium with coelenterazine (α2A and α2B: 5 μg/ml; α1a/c and α2C: 2.5 μg/ml). Serial dilutions of the test substances (10 μl) were added to the cells. After 5 minutes, noradrenaline was added to the cells (35 μl; final concentrations: 20 nM (α1a/c, and α2C) or 200 nM (α2A and α2B)), and the emitted light was measured for 50 seconds using a CCD (charge-coupled device) camera (Hamamatsu Corporation, Shizuoka, Japan) in a light-tight box. The test substances were tested up to a maximum concentration of […] The IC50 values were calculated from the appropriate dose-response curves.

[1] = test system: diabetic (ZDFfa/fa) and healthy rats (Wistar); experiment: Assay of perfusion-enhancing substances (microcirculation), laser doppler probe at the paw; format: in vivo, rat; settings: single oral dose; for MED skin temperature: minimum effective dose for significant increase of skin temperature (ttest); for MED microcirculation: minimum effective dose with significantly improved microcirculation vs placebo; for MED microcirculation / factor by which microcirculation is improved at MED compared to placebo: 30 min after administration; for factor by which microcirculation is improved at MED compared to placebo: at the MED
Description: B-2e) Assay of Perfusion-Enhancing Substances (Microcirculation)
In diabetic (ZDFfa/fa) and healthy rats (Wistar), a laser doppler probe was fastened under anaesthesia conditions (isoflurane anaesthesia) at the sole of the paw for measuring cutaneous microcirculation. The test animals were once treated orally with the test substances. During the experiment, microperfusion and temperature of the lower extremities were documented continuously. Here, a temperature-sensitive laser doppler probe (Periflux, O2C) was fastened with adhesive to the paws of the animals, allowing the measurement of microperfusion and skin temperature. The microcirculation measurement values were measured on both paws 30 min after oral administration of the test substance. […] Also stated is the MED for the significant increase of skin temperature (ttest).
Microcirculation data for adrenoreceptor α2c antagonist of Example 8 and for the comparative substance ORM12741, an AR α2c antagonist from Orion, are shown in Table 2: […]

[2] = test system: conscious female Wistar rats; experiment: Radiotelemetric measurement of blood pressure and heart rate of conscious rats; format: in vivo, rat
Description: B-2l) Radiotelemetric Measurement of Blood Pressure and Heart Rate of Conscious Rats
A commercially available telemetry system from Data Sciences International DSI, USA, was employed for the measurements on conscious rats described below. The system consists of 3 main components: (1) implantable transmitters (Physiotel® telemetry transmitter), (2) receivers (Physiotel® receiver), which are linked via a multiplexer (DSI Data Exchange Matrix) to a (3) data acquisition computer. The telemetry system makes it possible to continuously record blood pressure, heart rate and body motion of conscious animals in their usual habitat.
The studies were conducted on adult female Wistar rats with a body weight of >200 g. After transmitter implantation, the experimental animals were housed singly in type III Makrolon® cages. They had free access to standard feed and water. The day/night rhythm in the test laboratory was set by changing the illumination of the room.
The telemetry transmitters used (PA-C40, DSI) were surgically implanted under aseptic conditions in the experimental animals at least 14 days before the first experimental use. […]
Each of the instrumented rats living in the system was assigned a separate receiving antenna (RPC-1 Receiver, DSI). […] The signals emitted were detected online by a data acquisition system (Dataquest™ A.R.T. for Windows, DSI) and processed accordingly.
In the standard procedure, the following were measured for 10-second periods in each case: (1) systolic blood pressure (SBP), (2) diastolic blood pressure (DBP), (3) mean arterial pressure (MAP) and (4) heart rate (HR) and (5) activity (ACT). These parameters were measured over 24 hours after administration.
The acquisition of measurements was repeated under computer control at 5-minute intervals. The source data obtained as absolute values were corrected in the diagram with the currently measured barometric pressure (Ambient Pressure Reference Monitor, APR-1, DSI). […]

Chain of human α2C receptor (P18825 whole entry): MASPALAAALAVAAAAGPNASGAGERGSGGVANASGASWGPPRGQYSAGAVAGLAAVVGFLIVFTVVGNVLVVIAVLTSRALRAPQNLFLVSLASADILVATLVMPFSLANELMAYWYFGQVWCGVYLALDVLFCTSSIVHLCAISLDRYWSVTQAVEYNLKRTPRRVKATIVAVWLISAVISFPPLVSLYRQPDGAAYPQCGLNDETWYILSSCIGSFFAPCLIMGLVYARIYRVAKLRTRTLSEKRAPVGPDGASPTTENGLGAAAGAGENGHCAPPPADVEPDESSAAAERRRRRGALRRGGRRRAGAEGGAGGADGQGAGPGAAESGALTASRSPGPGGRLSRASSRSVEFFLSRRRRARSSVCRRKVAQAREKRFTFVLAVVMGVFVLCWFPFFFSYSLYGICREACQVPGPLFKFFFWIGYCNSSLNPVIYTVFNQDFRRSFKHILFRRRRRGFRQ

COCCNc1ccc(C(=O)N2CCC(N3CCc4ccccc4C3)CC2)cn1 [Example 1, [4-(3,4-Dihydroisoquinolin-2-(1H)-yl)piperidin-1-yl]{6-[(2-methoxyethyl)amino]pyridin-3-yl}-methanone]
IC50 (human α2C receptor): 22 nM | MED skin temperature [1]: 1 mg/kg | MED microcirculation [1]: 1 mg/kg | factor by which microcirculation is improved at MED compared to placebo [1]: 1.8 ×

COCCNc1ccc(C(=O)N2CCC(N3CCc4ccc(F)cc4C3)CC2)cn1 [Example 2, [4-(7-Fluoro-3,4-dihydroisoquinolin-2(1H)-yl)piperidin-1-yl]{6-[(2-methoxyethyl)amino]pyridin-3-yl}methanone]
IC50 (human α2C receptor): 13 nM

O=C(c1ccc(N2CCOCC2)nc1)N1CCC(N2CCc3ccccc3C2)CC1 [Example 3, [4-(3,4-Dihydroisoquinolin-2(1H)-yl)piperidin-1-yl][6-(morpholin-4-yl)pyridin-3-yl]methanone]
IC50 (human α2C receptor): 9 nM

O=C(c1ccc(N2CCS(=O)(=O)CC2)nc1)N1CCC(N2CCc3ccccc3C2)CC1 [Example 4, [4-(3,4-Dihydroisoquinolin-2(1H)-yl)piperidin-1-yl][6-(1,1-dioxidothiomorpholin-4-yl)pyridin-3-yl]methanone]
haemodynamic effects (blood pressure, heart rate) ([2]; conscious rats, oral administration, 24 hours telemetry): no haemodynamic effects | heart rate ([2]; oral dose of 3 and 10 mg/kg): slight transient increase in the heart rate | IC50 (human α2C receptor): 24 nM | MED skin temperature [1]: 0.1 mg/kg | MED microcirculation [1]: 0.1 mg/kg | factor by which microcirculation is improved at MED compared to placebo [1]: 2.4 ×

COC[C@H]1CCCN1c1ccc(C(=O)N2CCC(N3CCc4ccccc4C3)CC2)cn1 [Example 5, [4-(3,4-Dihydroisoquinolin-2(1H)-yl)piperidin-1-yl]{6-[(2R)-2-(methoxymethyl)pyrrolidin-1-yl]pyridin-3-yl}methanone]
IC50 (human α2C receptor): 65 nM

O=C(O)[C@H]1CCCN1c1ccc(C(=O)N2CCC(N3CCc4ccccc4C3)CC2)cn1 [Example 6, 1-(5-{[4-(3,4-Dihydroisoquinolin-2(1H)-yl)piperidin-1-yl]carbonyl}pyridin-2-yl)-D-proline]
IC50 (human α2C receptor): 27 nM | MED skin temperature [1]: no effect | MED microcirculation [1]: no effect | factor by which microcirculation is improved at MED compared to placebo [1]: ≤ 1.3 ×

CC[C@@H](CO)Nc1ccc(C(=O)N2CCC(N3CCc4ccccc4C3)CC2)cn1 [Example 7, [4-(3,4-Dihydroisoquinolin-2(1H)-yl)piperidin-1-yl](6-{[(2S)-1-hydroxybutan-2-yl]amino}pyridin-3-yl)methanone]
IC50 (human α2C receptor): 21 nM

COC1CCN(c2ccc(C(=O)N3CCC(N4CCc5cc(F)ccc5C4)CC3)cn2)C1 (centres unmarked) [Example 8, [4-(6-Fluoro-3,4-dihydroisoquinolin-2(1H)-yl)piperidin-1-yl][6-(3-methoxypyrrolidin-1-yl)pyridin-3-yl]methanone]
IC50 (human α2C receptor): 58 nM

COc1ccc2c(c1)CCN(C1CCN(C(=O)c3ccc(N4CCC(OC)C4)nc3)CC1)C2 (centres unmarked) [Example 9, [4-(6-Methoxy-3,4-dihydroisoquinolin-2(1H)-yl)piperidin-1-yl][6-(3-methoxypyrrolidin-1-yl)pyridin-3-yl]methanone]
IC50 (human α2C receptor): 11 nM

O=C(c1ccc(N2CC3(COC3)C2)nc1)N1CCC(N2CCc3ccccc3C2)CC1 [Example 10, [4-(3,4-Dihydroisoquinolin-2(1H)-yl)piperidin-1-yl][6-(2-oxa-6-azaspiro[3.3]hept-6-yl)pyridin-3-yl]methanone]
MED skin temperature [1]: 0.03 mg/kg | MED microcirculation [1]: 0.03 mg/kg | factor by which microcirculation is improved at MED compared to placebo [1]: 2.1 ×

CC1CN(c2ccc(C(=O)N3CCC(N4CCc5ccccc5C4)CC3)cn2)CC(C)O1 (centres unmarked) [Example 11, [4-(3,4-Dihydroisoquinolin-2(1H)-yl)piperidin-1-yl][6-(2,6-dimethylmorpholin-4-yl)pyridin-3-yl]methanone]
IC50 (human α2C receptor): 11 nM

CC1CN(c2ccc(C(=O)N3CCC(N4CCc5ccccc5C4)CC3)cn2)CC(C)O1 (centres unmarked) [Example 12, [4-(3,4-Dihydroisoquinolin-2(1H)-yl)piperidin-1-yl][6-(2,6-dimethylmorpholin-4-yl)pyridin-3-yl]methanone]
IC50 (human α2C receptor): 21 nM

CC1(C)CN(c2ccc(C(=O)N3CCC(N4CCc5ccccc5C4)CC3)cn2)CCO1 [Example 13, [4-(3,4-Dihydroisoquinolin-2(1H)-yl)piperidin-1-yl][6-(2,2-dimethylmorpholin-4-yl)pyridin-3-yl]methanone]
IC50 (human α2C receptor): 53 nM

O=C(c1ccc(N2CCOC(C(F)(F)F)C2)nc1)N1CCC(N2CCc3ccccc3C2)CC1 (centres unmarked) [Example 14, [4-(3,4-Dihydroisoquinolin-2(1H)-yl)piperidin-1-yl]{6-[2-(trifluoromethyl)morpholin-4-yl]pyridin-3-yl}methanone]
IC50 (human α2C receptor): 23 nM

O=C(c1ccc(N2CC3(C2)CS(=O)(=O)C3)nc1)N1CCC(N2CCc3ccccc3C2)CC1 [Example 15, [4-(3,4-Dihydroisoquinolin-2(1H)-yl)piperidin-1-yl][6-(2,2-dioxido-2-thia-6-azaspiro[3.3]hept-6-yl)pyridin-3-yl]methanone]
IC50 (human α2C receptor): 53 nM

COC[C@@]1(C)CCCN2CCc3c(oc4ccccc34)[C@@H]21 [ORM-12741, reference compound]
blood pressure ([2]; 10 mg/kg, oral): additional reduction in blood pressure | MED skin temperature [1]: 0.01 mg/kg | MED microcirculation [1]: 0.1 mg/kg | factor by which microcirculation is improved at MED compared to placebo [1]: 1.9 ×
